Assay results reported in EPA's ToxValDB 9.5.
Several values for one entry are separate records, joined by “and”; a condition that tells them apart may be missing. Identical values can stand only once. One block for each compound: values may come before it.

What was measured:
Oryctolagus sp. [1] = details: developmental; oral; gavage; Prominent liver lobulation
Rattus norvegicus [2] = details: oral; for NOAEL: drinking water
Oryctolagus sp. [3] = test: LC60; higher = less toxic; details: acute; oral
Rattus norvegicus [4] = details: for LD50: acute
Rattus norvegicus [5] = test: LD5; higher = less toxic; details: developmental, oral, drinking water, M/F, Wistar
Oryctolagus sp. [6] = test: LD40; higher = less toxic; details: acute; dermal; occlusive
Cavia porcellus [7] = details: uterotrophic; duration: 12 days; injection; subcutaneous; Guinea Pig; Active
Mus musculus [8] = details: chronic, duration: 92 days, inhalation, intermittent
Mus musculus [9] = details: subchronic; inhalation; M/F; mortality
Mus musculus [10] = test: FEL; higher = less toxic; details: subchronic; inhalation; M/F; mortality
Rattus norvegicus [11] = details: subchronic; duration: 90 days; oral; drinking water; Nerve: Damage
Mus musculus [12] = details: chronic; duration: 2 years; oral; drinking water; M/F; B6C3F1; Hardarian gland & lung tumors (males)
Rattus norvegicus [13] = details: M/F; for LOAEL: developmental, Wistar
Canidae = details: short-term; duration: 22 days; oral; Beagle
Monkey = details: chronic; duration: 363 days; oral; diet
Mus musculus [14] = details: oral, gavage
Dog, Mouse, Rat = details: oral; Effects on the reproductive system and developing nervous system
Mus musculus [15] = details: developmental; oral; diet; M/F; Swiss-Webster; Nervous
Mus musculus [16] = details: oral
Bacteria = details: In vitro / microbiological; Growth inhibition
Rattus norvegicus [17] = details: subchronic, oral, gavage, M/F, Fischer 344
Mus musculus [18] = test: LD100; higher = less toxic; details: acute; oral; TAC:SWfBr
Mus musculus [19] = test: LD0; higher = less toxic; details: acute; injection; Intraperitoneal
Oryctolagus sp. [20] = details: acute, dermal
Rattus norvegicus [21] = test: LC0; higher = less toxic; details: acute; inhalation
Chalcophaps sp. = details: oral
Mus musculus [22] = details: repeat dose other; oral
Cavia porcellus [23] = details: chronic; oral; M/F; Guinea Pig; increased relative liver weight
Rattus norvegicus [24] = details: Hershberger, duration: 10 days, oral, gavage, active + Antiandrogenic + anti-androgenic + significant increase in liver wt at 100 and greater / significant decrease in AST and increase …
Rattus norvegicus [25] = details: developmental, oral, gavage, M, Wistar, generation: F1
Cavia porcellus [26] = details: subchronic; duration: 90 days; oral; M/F; Guinea Pig; ototoxicity
Homo sapiens = test: LD100; higher = less toxic; details: acute; oral
[27] = short-term, duration: 28 days, oral, gavage, Sprague-Dawley
[28] = reproduction developmental, duration: 10 weeks, oral, drinking water, F, Fischer 344
[29] = reproduction developmental, duration: 10 weeks, oral, drinking water, M, Fischer 344
[30] = reproduction developmental, duration: 80 days, oral, drinking water, Long-Evans
[31] = subchronic, duration: 13 weeks, oral, gavage, Fischer 344
[32] = subchronic, duration: 13 weeks, B6C3F1

SMILES: Cc1cc(C)[nH]c(=O)n1.O=C(Nc1ccc([N+](=O)[O-])cc1)Nc1ccc([N+](=O)[O-])cc1 [1,3-Bis(4-nitrophenyl)urea 4,6-dimethylpyrimidin-2-ol (1:1)]
NOAEL (Oryctolagus sp. [1]): 60 mg/kg-day | NOEL (Rattus norvegicus [2]; reproduction developmental, gavage, M/F, CD/CRJ, Maternal mortality & decreased bodyweight gain & feed consumption / decreased bodyweight & various malformations in offspring): 200 mg/kg-day

SMILES: Cc1ccc(C)c(O)c1 [2,5-Dimethylphenol]
LC60 (Oryctolagus sp. [3]): 938 mg/kg | LD50 (Rattus norvegicus [4]; oral): 444 mg/kg

SMILES: CCC(C)O (centres undefined) [2-Butanol]
LD5 (Rattus norvegicus [5]): 657 mg/kg-day

SMILES: N#Cc1cccnc1 [3-Pyridinecarbonitrile]
LD40 (Oryctolagus sp. [6]): ≥ 2000 mg/kg and ≤ 4000 mg/kg | LD50 (Rattus norvegicus [4]; oral, gavage, Sprague-Dawley): 1460 mg/kg and 1480 mg/kg | LD50 (Rattus norvegicus [4]; oral, gavage, Wistar): 1100 mg/kg | LOAEL (Rattus norvegicus [4]; [27]): 30 mg/kg-day | NOAEL (Rattus norvegicus [4]; [27]): 5 mg/kg-day

LEL (Cavia porcellus [7]): 0.1 mg/day
SMILES: CC/C(=C(\c1ccc(O)cc1)c1ccc(OCCN(C)C)cc1)c1ccccc1 [4-Hydroxytamoxifen]

SMILES: CC#N [Acetonitrile]
NOAEL (Mus musculus [8]; Blood: Decreased hematocrit + Erythrocytes: Decreased cell count + Liver: Hepatic lesions): 168 mg/m3 | NOAEL (Mus musculus [8]; Liver: Increased relative weight): 168 mg/m3 | NOAEL (Mus musculus [9]): 336 mg/m3 | FEL (Mus musculus [10]): 672 mg/m3

SMILES: C=CC(N)=O [Acrylamide]
NOEL (Rattus norvegicus [11]): 0.2 mg/kg-day | LOEL (Mus musculus [12]): 1.05 mg/kg-day | NOAEL (Rattus norvegicus [2]; chronic, duration: 2 years, M/F, Fischer 344, neurotoxicity): 0.67 mg/kg-day and 1.88 mg/kg-day | NOAEL (Rattus norvegicus [13]; subchronic, duration: 90 days, oral, drinking water, Fischer 344, neurological): 0.2 mg/kg-day | NOAEL (Canidae): 5 mg/kg-day | NOAEL (Monkey): ≥ 1 mg/kg-day and ≤ 3 mg/kg-day | NOAEL (Mus musculus [14]; developmental, Swiss): 15 mg/kg-day | NOAEL (Mus musculus [14]; reproduction developmental, F, Swiss): 2.5 mg/kg-day | NOAEL (Rattus norvegicus [4]; chronic, duration: 93 days, oral, drinking water, Fischer 344): 0.2 mg/kg-day | NOAEL (Rattus norvegicus [4]; chronic, oral, drinking water, Fischer 344): 0.1 mg/kg-day | NOAEL (Rattus norvegicus [4]; developmental, oral, gavage, Sprague-Dawley / Mice: Swiss): 15 mg/kg-day | LOAEL (Rattus norvegicus [4]; [28]): 2 mg/kg-day | NOAEL (Rattus norvegicus [4]; [28]): 0.5 mg/kg-day | NOAEL (Rattus norvegicus [4]; reproduction developmental, duration: 10 weeks, oral, drinking water, Long-Evans, generation: F0): 5 mg/kg-day | LOAEL (Rattus norvegicus [4]; [29]): 2 mg/kg-day | NOAEL (Rattus norvegicus [4]; [29]): 0.5 mg/kg-day | LOAEL (Rattus norvegicus [4]; [30]): 2.8 mg/kg-day | NOAEL (Rattus norvegicus [4]; [30]): 1.5 mg/kg-day | NOAEL (Rattus norvegicus [4]; reproduction developmental, oral, drinking water, Fischer 344, generation: F0): 0.5 mg/kg-day | NOAEL (Rattus norvegicus [4]; reproduction developmental, oral, drinking water, Fischer 344, generation: F1): 2 mg/kg-day | NOAEL (Rattus norvegicus [4]; reproduction developmental, oral, drinking water, Fischer 344, generation: F2): 2 mg/kg-day | NOAEL (Rattus norvegicus [4]; reproduction developmental, oral, gavage, F, Sprague-Dawley / Mice: Swiss): 2.5 mg/kg-day | NOAEL (Rattus norvegicus [4]; short-term, duration: 28 days, oral, drinking water, Fischer 344): ≥ 4.1 mg/kg-day and ≤ 4.3 mg/kg-day | NOAEL (Rattus norvegicus [4]; [31]): 5 mg/kg-day

SMILES: [Al] [Aluminum]
NOAEL (Rattus norvegicus [2]; developmental, Renal damage (hydronephrosis, urethral dilatation, obstruction and/or presence of calculi) and reduced grip strength, but not cognitive …): 30 mg/kg-day | LOEL (Dog, Mouse, Rat): 50 mg/kg-day and 75 mg/kg-day | LOAEL (mg Al/kg-day) (Mus musculus [15]): 100 | LOAEL (Mus musculus [16]; chronic, duration: 24 months, diet, M/F, Swiss-Webster, neurological): 100 mg/kg-day | NOAEL (Mus musculus [16]; developmental, duration: 364 days, diet, M/F, Swiss-Webster, neurological): 26 mg/kg-day

SMILES: CN[C@@H]1[C@@H](O[C@H]2O[C@H](CO)[C@@H](N)[C@H](O)[C@H]2O)O[C@H]2C[C@@H](N)[C@@H](O[C@H]3[C@H](O)[C@@H](O)[C@H](N)C[C@@H]3N)O[C@@H]2[C@@H]1O [Apramycin]
NOAEC (Bacteria): 8.3 µg/mL

SMILES: C[N+](C)(C)Cc1ccccc1.[Cl-] [Benzyltrimethylammonium chloride]
NOEL (Rattus norvegicus [17]; Deaths + Clinical Observation: Nasal and eye discharge Lacrimation Salivation Tremors + Functional Observational Battery: Lacrimation or …): < 12.5 mg/kg-day | LD100 (Mus musculus [18]): 1600 mg/kg | NOAEL (Mus musculus [14]; [32]): 25 mg/kg-day | LD50 (Rattus norvegicus [4]; oral, gavage, Fischer 344): 180 mg/kg | NOAEL (Rattus norvegicus [4]; short-term, duration: 28 days, oral, Crj:CD): 30 mg/kg-day | NOAEL (Rattus norvegicus [4]; short-term, duration: 28 days, oral, F, Crj:CD): 60 mg/kg-day | NOAEL (Rattus norvegicus [4]; [31]): 25 mg/kg-day

SMILES: CCCCC(CC)COP(=O)(O)OCC(CC)CCCC (centres undefined) [Bis(2-ethylhexyl) phosphate]
LD0 (Mus musculus [19]): 63 mg/kg | LD50 (Oryctolagus sp. [20]): 1200 mg/kg | LD50 (Oryctolagus sp. [20]; occlusive, New Zealand): > 2000 mg/kg | LD50 (Rattus norvegicus [4]; injection, Intraperitoneal): ≥ 50 mg/kg and ≤ 100 mg/kg | LD50 (Rattus norvegicus [4]; oral): 4740 mg/kg | LD50 (Rattus norvegicus [4]; oral, gavage, Wistar): 1400 mg/kg

SMILES: O=C(O)CCl [Chloroacetic acid]
NOEL (Rattus norvegicus [17]; duration: 13 weeks, Deaths + Body Weight Changes: decrease + Blood Chemistry: Ch E decrease, Ca decrease, TP decrease + Absolute Organ Weight: Heart decrease, …): < 30 mg/kg-day | LC0 (Rattus norvegicus [21]): 0.005 mg/L | NOAEL (Mus musculus [14]; [32]): 100 mg/kg-day | NOAEL (Rattus norvegicus [4]; chronic, duration: 208 days, oral, diet, M, Wistar): 25 mg/kg-day | NOAEL (Rattus norvegicus [4]; [31]): 30 mg/kg-day

SMILES: CCCCC(CC)COC(=O)c1ccccc1C(=O)OCC(CC)CCCC (centres undefined) [Di(2-ethylhexyl) phthalate]
NOAEL (Chalcophaps sp.): 1.1 mg/kg-day | LOAEL (Mus musculus [22]): 183 mg/kg-day | NOAEL (Mus musculus [22]): 18.3 mg/kg-day | LOAEL (Cavia porcellus [23]): 19 mg/kg-day | LOEL (Rattus norvegicus [24]; Sprague-Dawley): 300 mg/kg-day and 100 mg/kg-day | LOEL (Rattus norvegicus [24]; Wistar): 300 mg/kg-day and 200 mg/kg-day | NOEL (Rattus norvegicus [24]; Wistar): 100 mg/kg-day | LOAEL (Mus musculus [16]; developmental, duration: 20 days, gavage, F, CD1, developmental): 0.04 mg/kg-day | LOAEL (Rattus norvegicus [13]; duration: 9 weeks, inhalation, whole body): 4.79 mg/m3 | LOAEL (Rattus norvegicus [13]; duration: 12 days, oral, gavage): 1 mg/kg-day | LOEL (Rattus norvegicus [25]; F1: AGD (mm)): 405 mg/kg-day | NOEL (Rattus norvegicus [25]; F1: AGD (mm)): 135 mg/kg-day | NOEL (Rattus norvegicus [25]; F1: Hypospadias (% litters affected) + F1: Hypospadias (litters affected incidence)): 405 mg/kg-day

SMILES: NC[C@@H]1O[C@H](O[C@H]2[C@@H](O)[C@H](O[C@@H]3[C@@H](O)[C@H](N)C[C@H](N)[C@H]3O[C@H]3O[C@H](CN)[C@@H](O)[C@H](O)[C@H]3N)O[C@@H]2CO)[C@H](N)[C@@H](O)[C@@H]1O [Neomycin]
NOEL (Cavia porcellus [26]): 6 mg/kg-day

SMILES: CCCCCCCCCCCCCCCCCC(=O)O [Octadecanoic acid]
LD100 (Homo sapiens): 14300 mg/kg | LD50 (Rattus norvegicus [4]; oral): 4600 mg/kg
